Source: patent publication US20150087673A1, “METHODS FOR USING AND BIOMARKERS FOR AMPK-ACTIVATING COMPOUNDS” (RIGEL PHARMACEUTICALS, INC., priority 2013, published 2015)

What follows are compounds tested on AMPK (assay: AMPK activation assay (enzyme-linked immunosorbent assay)).
Type: cell-based
In short: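 Activation by each compound is measured using a conventional commercial immunoassay kit.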

EC50 [nM] | SMILES
< 500 | COc1ccc(CN2CCC(NC(=O)c3ccc(C(=O)N4CCC(Oc5ccc(C(=O)C6CC6)cc5)CC4)nc3)CC2)cc1 [Compound 458, 6-(4-(4-(cyclopropanecarbonyl)phenoxy)piperidine-1-carbonyl)-N-(1-(4-methoxybenzyl)piperidin-4-yl)nicotinamide]
1000 to 5000 | N#Cc1ccc(CN2CCC(NC(=O)c3cccc(C(=O)NC4CCN(Cc5ccc(C#N)cc5)CC4)n3)CC2)cc1 [Compound 86, N2,N6-bis(1-(4-cyanobenzyl)piperidin-4-yl)pyridine-2,6-dicarboxamide]
< 500 | COc1cccc(Oc2ccc(NC(=O)c3ccc(C(=O)N4CCN(Cc5ccc(F)cc5)CC4)cn3)cc2)c1 [Compound 57, 5-(4-(4-fluorobenzyl)piperazine-1-carbonyl)-N-(4-(3-methoxyphenoxy)phenyl)picolinamide]
1000 to 5000 | CS(=O)(=O)c1ccc(C(=O)C2CCN(C(=O)c3ccc(C(=O)NC4CCN(Cc5ccc(F)cc5)CC4)cn3)CC2)cc1 [Compound 222, N-(1-(4-fluorobenzyl)piperidin-4-yl)-6-(4-(4-(methylsulfonyl)benzoyl)piperidine-1-carbonyl)nicotinamide]
< 500 | O=C(N[C@H]1CC[C@@H](Oc2ccc(F)cc2)CC1)c1ccc(C(=O)N2CCC(Oc3ccc(F)cc3)CC2)cn1 [Compound 312, N-((cis)-4-(4-fluorophenoxy)cyclohexyl)-5-(4-(4-fluorophenoxy)piperidine-1-carbonyl)picolinamide]
< 500 | N#Cc1ccc(CN2CCC(NC(=O)c3ccc(C(=O)NC4CCN(c5ccc(C#N)cc5)CC4)cn3)CC2)cc1 [Compound 166, N2-(1-(4-cyanobenzyl)piperidin-4-yl)-N5-(1-(4-cyanophenyl)piperidin-4-yl)pyridine-2,5-dicarboxamide]
5000 to 10000 | O=C(c1ccc(C(=O)N2CCN(Cc3ccccc3)CC2)nc1)N1CCN(Cc2ccccc2)CC1 [Compound 73, pyridine-2,5-diylbis((4-benzylpiperazin-1-yl)methanone)]
< 500 | N#Cc1ccc(O[C@H]2CC[C@@H](NC(=O)c3ccc(C(=O)N4CCC(Oc5ccc(C(F)(F)F)cc5)CC4)cn3)CC2)cc1 [Compound 190, N-((cis)-4-(4-cyanophenoxy)cyclohexyl)-5-(4-(4-(trifluoromethyl)phenoxy)piperidine-1-carbonyl)picolinamide]
> 10000 | COc1ccc(C(=O)C2CCN(C(=O)c3ccc(C(=O)NC4CCNCC4)cn3)CC2)cc1 [Compound 445, 6-(4-(4-methoxybenzoyl)piperidine-1-carbonyl)-N-(piperidin-4-yl)nicotinamide]
< 500 | COc1ccc(C(=O)C2CCN(C(=O)c3cnc(C(=O)Nc4ccc(Oc5ccc(F)cc5)nc4)cn3)CC2)cc1 [Compound 204, N-(6-(4-fluorophenoxy)pyridin-3-yl)-5-(4-(4-methoxybenzoyl)piperidine-1-carbonyl)pyrazine-2-carboxamide]
< 500 | COc1ccc(C(=O)C2CCN(C(=O)c3ccc(C(=O)NC4CCN(Cc5ccc(OC(F)(F)F)cc5)CC4)cn3)CC2)cc1 [Compound 430, 6-(4-(4-methoxybenzoyl)piperidine-1-carbonyl)-N-(1-(4-(trifluoromethoxy)benzyl)piperidin-4-yl)nicotinamide]
< 500 | COc1ccc(C(=O)C2CCN(C(=O)c3ccc(C(=O)Nc4ccc(Oc5ccc(C(=O)N(C)C)cc5)nc4)cn3)CC2)cc1 [Compound 480, N-(6-(4-(dimethylcarbamoyl)phenoxy)pyridin-3-yl)-6-(4-(4-methoxybenzoyl)piperidine-1-carbonyl)nicotinamide]
< 500 | N#Cc1ccc(CN2CCC(NC(=O)c3ccc(N4CCC(Oc5ccc(C#N)cc5)CC4)cn3)CC2)cc1 [Compound 165, N-(1-(4-cyanobenzyl)piperidin-4-yl)-5-(4-(4-cyanophenoxy)piperidin-1-yl)picolinamide]
< 500 | CC1(C)CN(C(=O)c2ccc(C(=O)NC3CCN(Cc4ccc(C#N)cc4)CC3)nc2)CCN1Cc1ccc(F)cc1 [Compound 125, N-(1-(4-cyanobenzyl)piperidin-4-yl)-5-(4-(4-fluorobenzyl)-3,3-dimethylpiperazine-1-carbonyl)picolinamide]
< 500 | O=C(NC1CCN(Cc2ccc(F)cc2)CC1)c1ccc(C(=O)N2CCC(C(=O)c3ccc(-n4cccn4)cc3)CC2)nc1 [Compound 392, 6-(4-(4-(1H-pyrazol-1-yl)benzoyl)piperidine-1-carbonyl)-N-(1-(4-fluorobenzyl)piperidin-4-yl)nicotinamide]
5000 to 10000 | O=C(Nc1cccc(-c2ccccc2)c1)c1ccc(C(=O)N2CCN(Cc3ccc(F)cc3)CC2)cn1 [Compound 12]

EC50 [nM] | SMILES
< 500 | CS(=O)(=O)c1ccc(OC2CCN(C(=O)c3ccc(C(=O)NC4CCN(Cc5ccc(C#N)cc5)CC4)nc3)CC2)cc1 [Compound 227, N-(1-(4-cyanobenzyl)piperidin-4-yl)-5-(4-(4-(methylsulfonyl)phenoxy)piperidine-1-carbonyl)picolinamide]
< 500 | CS(=O)(=O)c1ccc(OC2CCN(C(=O)c3ccc(C(=O)Nc4ccc(S(=O)(=O)c5ccc(F)cc5)nc4)nc3)CC2)cc1 [Compound 261, N-(6-(4-fluorophenylsulfonyl)pyridin-3-yl)-5-(4-(4-(methylsulfonyl)phenoxy)piperidine-1-carbonyl)picolinamide]
< 500 | N#Cc1ccc(CN2CCC(NC(=O)c3ccc(N4CCC(Oc5ccc(C#N)cc5)CC4)nn3)CC2)cc1 [Compound 351, N-(1-(4-cyanobenzyl)piperidin-4-yl)-6-(4-(4-cyanophenoxy)piperidin-1-yl) pyridazine-3-carboxamide]
< 500 | N#Cc1ccc(CN2CCc3ccc(NC(=O)c4ccc(C(=O)N5CCN(Cc6ccc(F)cc6)CC5)cn4)cc3C2)cc1 [Compound 132, N-(2-(4-cyanobenzyl)-1,2,3,4-tetrahydroisoquinolin-7-yl)-5-(4-(4-fluorobenzyl)piperazine-1-carbonyl)picolinamide]
1000 to 5000 | N#Cc1ccc(-c2ccc(Nc3ccc(C(=O)NC4CCN(Cc5ccccc5)CC4)nc3)cc2)cc1 [Compound 119, N-(1-benzylpiperidin-4-yl)-5-(4′-cyanobiphenyl-4-ylamino)picolinamide]
> 10000 | N#Cc1ccc(CN2CCC(NC(=O)c3ccc(C(=O)N4CCN(C5CCOCC5)CC4)cn3)CC2)cc1 [Compound 83, N-(1-(4-cyanobenzyl)piperidin-4-yl)-5-(4-(tetrahydro-2H-pyran-4-yl)piperazine-1-carbonyl)picolinamide]
< 500 | N#Cc1ccc(OC2CCN(C(=O)c3ccc(C(=O)NC4CCN(Cc5ccc(N6CCCC6)cc5)CC4)nc3)CC2)cc1 [Compound 197, 5-(4-(4-cyanophenoxy)piperidine-1-carbonyl)-N-(1-(4-(pyrrolidin-1-yl)benzyl)piperidin-4-yl)picolinamide]
5000 to 10000 | N#Cc1ccc(CN2CCC(NC(=O)c3ccc(Nc4ccc(-c5ccccc5)cc4)cn3)CC2)cc1 [Compound 109, 5-(biphenyl-4-ylamino)-N-(1-(4-cyanobenzyl)piperidin-4-yl)picolinamide]
< 500 | O=C(Nc1ccc(-c2cccnc2)cc1)c1ccc(C(=O)N2CCN(Cc3ccc(F)cc3)CC2)cn1 [Compound 61, 5-(4-(4-fluorobenzyl)piperazine-1-carbonyl)-N-(4-(pyridine-3-yl)phenyl)picolinamide]
< 500 | CC(=O)c1ccc(Oc2ccc(NC(=O)c3ccc(C(=O)N4CCC(Oc5ccc(S(C)(=O)=O)cc5)CC4)nc3)cn2)cc1 [Compound 485, N-(6-(4-acetylphenoxy)pyridin-3-yl)-6-(4-(4-(methylsulfonyl)phenoxy)piperidine-1-carbonyl)nicotinamide]
< 500 | CC(C)(c1ccccc1)N1CCN(C(=O)c2ccc(C(=O)NC3CCN(Cc4ccc(C#N)cc4)CC3)nc2)CC1 [Compound 133, N-(1-(4-cyanobenzyl)piperidin-4-yl)-5-(4-(2-phenylpropan-2-yl)piperazine-1-carbonyl)picolinamide]
< 500 | COc1ccc(CN2CCC(NC(=O)c3ccc(C(=O)N4CCC(C(=O)c5ccc(N6CCCC6)cc5)CC4)nc3)CC2)cc1 [Compound 439, N-(1-(4-methoxybenzyl)piperidin-4-yl)-6-(4-(4-(pyrrolidin-1-yl)benzoyl)piperidine-1-carbonyl)nicotinamide]
1000 to 5000 | COc1cccc(CN2CCC(NC(=O)c3ccc(C(=O)N4CCC(Oc5ccc(S(C)(=O)=O)cc5)CC4)nc3)CC2)c1 [Compound 238, N-(1-(3-methoxybenzyl)piperidin-4-yl)-6-(4-(4-(methylsulfonyl)phenoxy)piperidine-1-carbonyl)nicotinamide]
< 500 | O=C(Nc1ccc(Oc2ccc(F)cc2)cc1)c1ccc(C(=O)N2CCN(Cc3ccc(F)cc3)CC2)cn1 [Compound 60, 5-(4-(4-fluorobenzyl)piperazine-1-carbonyl)-N-(4-(4-fluorophenoxy)phenyl)picolinamide]
> 10000 | C[S+]([O-])c1ccc(C(=O)C2CCN(C(=O)c3ccc(C(=O)NC4CC[N+]([O-])(Cc5ccc(C#N)cc5)CC4)nc3)CC2)cc1 (centres unmarked) [Compound 374, 1-(4-cyanobenzyl)-4-(5-(4-(4-(methylsulfinyl)benzoyl)piperidine-1-carbonyl)picolinamido)piperidine 1-oxide]
< 500 | CS(=O)(=O)c1ccc(C(=O)C2CCN(C(=O)c3ccc(C(=O)Nc4ccc(Oc5ccc(F)cc5)nc4)cn3)CC2)cc1 [Compound 224, N-(6-(4-fluorophenoxy)pyridin-3-yl)-6-(4-(4-(methylsulfonyl)benzoyl)piperidine-1-carbonyl)nicotinamide]
